Literature values in US10273546B2, “Method and composition for diagnosis or treatment of aggressive prostate cancer” (The Trustees of Columbia University in the City of New York, priority 2014, dated 2019).

Columns and labels:
[1] = human, in vivo
Apo-B = conditions: animal models

For Mipomersen, which toxic effects [1] is on record?
Its toxic effects is “relatively mild”.

What about the “repression of target apo-B expression” value (Apo-B) of the same substance?
The value was “robust and prolonged repression”.
